# Test results taken from US8541588B2, “Sulfonamide derivatives” (Pfizer Limited, priority 2009, dated 2013).
# Target: T1, Nav1.7 (or SCN9A) channel; HEK cells stably transfected with hSCN9A (Homo sapiens, UniProt Q15858)
# T1 construct: expressed in transfected cells
# Test: Nav1.7 block, PatchXpress 7000 automated whole-cell voltage clamp, estimated IC50 (EIC50)
# Type: cell-based
# Settings: estimated IC50; hSCN9A HEK cells, PatchXpress platform; Examples 815-1040
# T1 sequence (Q15858 whole entry): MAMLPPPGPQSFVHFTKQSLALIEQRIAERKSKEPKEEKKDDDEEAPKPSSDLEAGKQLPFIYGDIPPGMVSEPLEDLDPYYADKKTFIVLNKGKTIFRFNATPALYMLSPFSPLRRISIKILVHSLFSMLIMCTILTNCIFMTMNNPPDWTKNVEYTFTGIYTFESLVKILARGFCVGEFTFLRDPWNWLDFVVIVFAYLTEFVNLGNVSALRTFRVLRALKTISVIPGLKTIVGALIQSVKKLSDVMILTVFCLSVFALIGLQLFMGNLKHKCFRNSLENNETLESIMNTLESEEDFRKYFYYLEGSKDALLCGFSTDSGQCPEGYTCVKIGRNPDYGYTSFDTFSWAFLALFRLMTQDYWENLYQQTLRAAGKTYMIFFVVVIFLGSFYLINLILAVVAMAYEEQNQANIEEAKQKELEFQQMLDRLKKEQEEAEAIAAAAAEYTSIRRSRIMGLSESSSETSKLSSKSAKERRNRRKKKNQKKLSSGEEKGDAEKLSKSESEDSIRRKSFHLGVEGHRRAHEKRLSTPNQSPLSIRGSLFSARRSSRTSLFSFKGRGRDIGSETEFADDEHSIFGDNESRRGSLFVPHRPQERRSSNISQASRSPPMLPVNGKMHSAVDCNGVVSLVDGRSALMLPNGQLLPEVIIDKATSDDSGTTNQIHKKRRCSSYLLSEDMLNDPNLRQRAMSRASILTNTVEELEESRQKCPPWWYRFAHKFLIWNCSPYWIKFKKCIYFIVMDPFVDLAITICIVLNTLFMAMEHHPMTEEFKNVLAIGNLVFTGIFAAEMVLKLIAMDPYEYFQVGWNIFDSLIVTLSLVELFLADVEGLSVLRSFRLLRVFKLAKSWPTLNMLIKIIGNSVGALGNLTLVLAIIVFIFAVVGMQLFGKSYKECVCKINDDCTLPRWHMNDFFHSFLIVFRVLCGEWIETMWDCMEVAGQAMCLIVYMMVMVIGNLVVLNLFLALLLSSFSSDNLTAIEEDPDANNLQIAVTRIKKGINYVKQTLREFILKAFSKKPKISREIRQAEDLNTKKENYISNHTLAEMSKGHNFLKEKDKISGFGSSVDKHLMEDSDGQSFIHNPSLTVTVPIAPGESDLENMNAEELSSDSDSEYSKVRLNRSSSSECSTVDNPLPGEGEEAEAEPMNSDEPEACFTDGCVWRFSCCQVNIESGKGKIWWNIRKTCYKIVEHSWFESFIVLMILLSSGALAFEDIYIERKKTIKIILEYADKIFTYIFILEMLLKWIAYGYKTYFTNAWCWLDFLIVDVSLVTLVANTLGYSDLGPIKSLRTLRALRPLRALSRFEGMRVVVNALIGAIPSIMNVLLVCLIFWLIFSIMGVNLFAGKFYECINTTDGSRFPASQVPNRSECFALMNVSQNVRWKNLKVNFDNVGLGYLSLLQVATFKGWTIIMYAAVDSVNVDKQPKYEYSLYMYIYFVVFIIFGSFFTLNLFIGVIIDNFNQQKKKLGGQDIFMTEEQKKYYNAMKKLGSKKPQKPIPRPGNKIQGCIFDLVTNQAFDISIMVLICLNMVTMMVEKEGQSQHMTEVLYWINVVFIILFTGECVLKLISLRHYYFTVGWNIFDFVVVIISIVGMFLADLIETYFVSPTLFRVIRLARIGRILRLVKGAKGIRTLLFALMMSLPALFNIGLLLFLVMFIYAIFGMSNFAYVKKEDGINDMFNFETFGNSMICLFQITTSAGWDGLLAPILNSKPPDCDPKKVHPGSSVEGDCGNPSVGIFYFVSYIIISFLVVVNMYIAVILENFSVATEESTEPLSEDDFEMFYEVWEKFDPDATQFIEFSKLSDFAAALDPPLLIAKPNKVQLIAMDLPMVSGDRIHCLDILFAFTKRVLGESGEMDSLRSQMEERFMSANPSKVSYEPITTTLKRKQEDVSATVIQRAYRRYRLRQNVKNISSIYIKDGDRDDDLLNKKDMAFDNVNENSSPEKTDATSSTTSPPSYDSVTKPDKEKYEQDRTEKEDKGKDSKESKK
row,SMILES,IC50 [nM]
1,"O=C(c1cccc(-c2cc(Cl)ccc2Oc2cc(F)c(S(=O)(=O)Nc3nncs3)cc2Cl)c1)N1CCC1 [Example 857, 4-{[3′-(azetidin-1-ylcarbonyl)-5-chlorobiphenyl-2-yl]oxy}-5-chloro-2-fluoro-N-1,3,4-thiadiazol-2-ylbenzenesulfonamide]",14
2,"O=C(c1cccc(-c2cc(Cl)ccc2Oc2ccc(S(=O)(=O)Nc3ccncn3)cc2Cl)c1)N1CCC1 [Example 858, 4-{[3′-(azetidin-1-ylcarbonyl)-5-chlorobiphenyl-2-yl]oxy}-3-chloro-N-pyrimidin-4-ylbenzenesulfonamide]",17
3,"O=C(c1cccc(-c2cc(Cl)ccc2Oc2cc(F)c(S(=O)(=O)Nc3ncns3)cc2Cl)n1)N1CCC1 [Example 859, 4-{2-[6-(azetidin-1-ylcarbonyl)pyridin-2-yl]-4-chlorophenoxy}-5-chloro-2-fluoro-N-1,2,4-thiadiazol-5-ylbenzenesulfonamide]",4.4
4,"CN(C)c1n[nH]cc1-c1cc(Cl)ccc1Oc1cc(F)c(S(=O)(=O)Nc2cscn2)cc1Cl [Example 860, 5-chloro-4-{4-chloro-2-[3-(dimethylamino)-1H-pyrazol-4-yl]phenoxy}-2-fluoro-N-1,3-thiazol-4-ylbenzenesulfonamide]",170
5,"CC(C)N1CC(n2nccc2-c2cc(Cl)ccc2Oc2ccc(S(=O)(=O)Nc3cscn3)cc2C#N)C1 [Example 861, 4-{4-chloro-2-[1-(1-isopropylazetidin-3-yl)-1H-pyrazol-5-yl]phenoxy}-3-cyano-N-1,3-thiazol-4-ylbenzenesulfonamide]",14
6,"Cn1nccc1-c1cc(Cl)ccc1Oc1ccc(S(=O)(=O)Nc2cccnn2)cc1Cl [Example 862, 3-chloro-4-[4-chloro-2-(1-methyl-1H-pyrazol-5-yl)phenoxy]-N-pyridazin-3-ylbenzenesulfonamide]",240
7,"Cc1[nH]ncc1-c1cc(Cl)c(F)cc1Oc1ccc(S(=O)(=O)Nc2ncns2)cc1C#N [Example 863, 4-[4-chloro-5-fluoro-2-(5-methyl-1H-pyrazol-4-yl)phenoxy]-3-cyano-N-1,2,4-thiadiazol-5-ylbenzenesulfonamide]",3.1
8,"N#Cc1cc(S(=O)(=O)Nc2ncns2)ccc1Oc1ccc(Cl)cc1-c1cccc(C(=O)NC2CC2)c1 [Example 864, 5′-chloro-2′-{2-cyano-4-[(1,2,4-thiadiazol-5-ylamino)sulfonyl]phenoxy}-N-cyclopropylbiphenyl-3-carboxamide]",4.4
9,"Cc1[nH]ncc1-c1cc(Cl)ccc1Oc1ccc(S(=O)(=O)Nc2ncns2)cc1C#N [Example 865, 4-[4-chloro-2-(5-methyl-1H-pyrazol-4-yl)phenoxy]-3-cyano-N-1,2,4-thiadiazol-5-ylbenzenesulfonamide]",4.4
10,"O=S1(=O)CCC(n2nccc2-c2cc(Cl)ccc2Oc2cc(F)c(S(=O)(=O)Nc3ncns3)cc2F)C1 (stereo not drawn) [Example 866, 4-{4-chloro-2-[1-(1,1-dioxidotetrahydro-3-thienyl)-1H-pyrazol-5-yl]phenoxy}-2,5-difluoro-N-1,2,4-thiadiazol-5-ylbenzenesulfonamide]",14
11,"N#Cc1cc(S(=O)(=O)Nc2ncns2)ccc1Oc1ccc(Cl)cc1-c1cccc(CN2CC(CO)(CO)C2)c1 [Example 867, 4-[(3′-{[3,3-bis(hydroxymethyl)azetidin-1-yl]methyl}-5-chlorobiphenyl-2-yl)oxy]-3-cyano-N-1,2,4-thiadiazol-5-ylbenzenesulfonamide]",1.4
12,"N#Cc1cc(S(=O)(=O)Nc2ncns2)ccc1Oc1ccc(Cl)cc1-c1ccnnc1 [Example 868, 4-(4-chloro-2-pyridazin-4-ylphenoxy)-3-cyano-N-1,2,4-thiadiazol-5-ylbenzenesulfonamide]",15
13,"O=S(=O)(Nc1cccnn1)c1ccc(Oc2ccc(Cl)cc2-c2ccnnc2)c(Cl)c1 [Example 869, 3-chloro-4-(4-chloro-2-pyridazin-4-ylphenoxy)-N-pyridazin-3-ylbenzenesulfonamide]",540
14,"CN(C)c1n[nH]cc1-c1cc(Cl)ccc1Oc1cc(F)c(S(=O)(=O)Nc2nncs2)cc1Cl [Example 870, 5-chloro-4-{4-chloro-2-[3-(dimethylamino)-1H-pyrazol-4-yl]phenoxy}-2-fluoro-N-1,3,4-thiadiazol-2-ylbenzenesulfonamide]",140
15,"Cc1nsc(NS(=O)(=O)c2cc(Cl)c(Oc3ccc(C(F)(F)F)cc3-c3ccnnc3)cc2F)n1 [Example 871, 5-chloro-2-fluoro-N-(3-methyl-1,2,4-thiadiazol-5-yl)-4-[2-pyridazin-4-yl-4-(trifluoromethyl)phenoxy]benzenesulfonamide]",25
16,"Cc1nsc(NS(=O)(=O)c2cc(Cl)c(Oc3ccc(Cl)cc3-c3c[nH]nc3N)cc2F)n1 [Example 872, 4-[2-(3-amino-1H-pyrazol-4-yl)-4-chlorophenoxy]-5-chloro-2-fluoro-N-(3-methyl-1,2,4-thiadiazol-5-yl)benzenesulfonamide]",12
17,"O=S(=O)(Nc1nncs1)c1cc(F)c(Oc2ccc(Cl)cc2-c2cc(N3CCOCC3)ncn2)cc1F [Example 873, 4-[4-chloro-2-(6-morpholin-4-ylpyrimidin-4-yl)phenoxy]-2,5-difluoro-N-1,3,4-thiadiazol-2-ylbenzenesulfonamide]",3900
18,"N#Cc1cc(S(=O)(=O)Nc2ncns2)ccc1Oc1ccc(Cl)cc1-c1cccc(CN2CC(F)(F)C2)n1 [Example 874, 4-(4-chloro-2-{6-[(3,3-difluoroazetidin-1-yl)methyl]pyridin-2-yl}phenoxy)-3-cyano-N-1,2,4-thiadiazol-5-ylbenzenesulfonamide]",350
19,"N#Cc1cc(S(=O)(=O)Nc2ncns2)ccc1Oc1ccc(Cl)cc1-c1cc(N2CCNCC2)ncn1 [Example 875, 4-[4-chloro-2-(6-piperazin-1-ylpyrimidin-4-yl)phenoxy]-3-cyano-N-1,2,4-thiadiazol-5-ylbenzenesulfonamide]",50
20,"N#Cc1cc(S(=O)(=O)Nc2nncs2)ccc1Oc1ccc(Cl)cc1-c1cc(N2CCOCC2)ncn1 [Example 876, 4-[4-chloro-2-(6-morpholin-4-ylpyrimidin-4-yl)phenoxy]-3-cyano-N-1,3,4-thiadiazol-2-ylbenzenesulfonamide]",>1000
21,"N#Cc1cc(S(=O)(=O)Nc2ncns2)ccc1Oc1ccc(Cl)cc1-c1cc(N2CCC2)ncn1 [Example 877, 4-[2-(6-azetidin-1-ylpyrimidin-4-yl)-4-chlorophenoxy]-3-cyano-N-1,2,4-thiadiazol-5-ylbenzenesulfonamide]",470
22,"N#Cc1cc(S(=O)(=O)Nc2ncns2)ccc1Oc1ccc(OC(F)(F)F)cc1-c1ccnnc1 [Example 878, 3-cyano-4-[2-pyridazin-4-yl-4-(trifluoromethoxy)phenoxy]-N-1,2,4-thiadiazol-5-ylbenzenesulfonamide]",5.8
23,"O=S(=O)(Nc1ncns1)c1cc(F)c(Oc2ccc(Cl)cc2-c2ccnnc2)cc1F [Example 879, 4-(4-chloro-2-pyridazin-4-ylphenoxy)-2,5-difluoro-N-1,2,4-thiadiazol-5-ylbenzenesulfonamide]",7
24,"N#Cc1cc(S(=O)(=O)Nc2ncns2)ccc1Oc1ccc(Cl)cc1-c1ccon1 [Example 880, 4-(4-chloro-2-isoxazol-3-ylphenoxy)-3-cyano-N-1,2,4-thiadiazol-5-ylbenzenesulfonamide]",110
